In patent US11986471B2, “Compounds and methods of use” (Tango Therapeutics, Inc., priority 2018, dated 2024):

What was measured:
PRMT5 [1] = target: T1, PRMT5 (Homo sapiens, UniProt O14744); assay: PRMT5 IC50 assay with no cofactor; type: biochemical
T1 construct: purchased Viva (custom protein)
In short: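 Values reflect IC50 (μM) on human PRMT5 under three cofactor states. Selectivity is derived as the quotient of SAM-state Ki over MTA-state Ki, with each Ki obtained from its IC50.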

HAP1 MTAP-intact = assay: SDMA in-cell western assay, HAP1 MTAP-intact cell line; type: cell-based; conditions: Homo sapiens
In short: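 IC50 values come from SDMA in-cell western staining of HAP1 cells. The MTAP-intact line carries endogenous MTAP, while its MTAP-deleted counterpart lacks MTAP entirely. A selectivity ratio of at least 3 fold marks a compound as MTAP-selective.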

PRMT5 [2] = target: T1, PRMT5; assay: PRMT5 IC50 assay in the presence of SAM as cofactor; type: biochemical
In short: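 For the SAM-containing format, dividing IC50 by 1.5 yields Ki; for the MTA-containing format the divisor is 13.5. A third format without cofactor gives IC50 alone.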

PRMT5 [3] = target: T1, PRMT5; assay: PRMT5 IC50 assay in the presence of MTA as cofactor; type: biochemical; conditions: for IC50: PRMT5, MTA as cofactor
In short: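 Potency against PRMT5 is compared across cofactor states, where IC50 equals Ki×1.5 with SAM present and Ki×13.5 with MTA present.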

HAP1 MTAP-deleted = assay: SDMA in-cell western assay, HAP1 MTAP-deleted cell line; type: cell-based; conditions: for IC50: Homo sapiens, HAP1 MTAP-deleted cell line; for MTAP Intact/Deleted Ratio: IC50 ratio HAP1 MTAP-intact / HAP1 MTAP-deleted
In short: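 Readout is cellular SDMA signal by in-cell western, with IC50 values derived from it. The cells are MTAP-null HAP1, matched to an isogenic MTAP-intact HAP1 line.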

[4] = ratio between the Ki in the presence of SAM and the Ki in the presence of MTA
[5] = ratio between Ki in the presence of SAM and Ki in the presence of MTA

T1 sequence (O14744 whole entry): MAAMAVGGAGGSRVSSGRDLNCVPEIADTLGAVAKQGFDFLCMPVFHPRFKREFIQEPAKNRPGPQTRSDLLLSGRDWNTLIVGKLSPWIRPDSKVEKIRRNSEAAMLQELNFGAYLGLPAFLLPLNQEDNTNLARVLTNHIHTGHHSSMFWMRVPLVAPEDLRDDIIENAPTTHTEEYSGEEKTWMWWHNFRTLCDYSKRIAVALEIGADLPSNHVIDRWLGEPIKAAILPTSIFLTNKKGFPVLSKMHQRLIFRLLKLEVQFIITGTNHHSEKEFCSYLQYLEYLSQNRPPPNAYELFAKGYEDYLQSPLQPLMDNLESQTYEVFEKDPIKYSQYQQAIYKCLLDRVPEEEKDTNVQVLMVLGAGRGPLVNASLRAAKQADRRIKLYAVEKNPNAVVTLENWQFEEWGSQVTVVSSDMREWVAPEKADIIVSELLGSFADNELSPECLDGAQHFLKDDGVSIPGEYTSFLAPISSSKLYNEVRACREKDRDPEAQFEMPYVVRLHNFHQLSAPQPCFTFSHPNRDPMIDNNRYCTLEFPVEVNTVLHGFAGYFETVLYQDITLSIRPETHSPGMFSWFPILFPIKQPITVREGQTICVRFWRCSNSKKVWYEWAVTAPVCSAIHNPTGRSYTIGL
T1 sequence (Q9BQA1 whole entry partner): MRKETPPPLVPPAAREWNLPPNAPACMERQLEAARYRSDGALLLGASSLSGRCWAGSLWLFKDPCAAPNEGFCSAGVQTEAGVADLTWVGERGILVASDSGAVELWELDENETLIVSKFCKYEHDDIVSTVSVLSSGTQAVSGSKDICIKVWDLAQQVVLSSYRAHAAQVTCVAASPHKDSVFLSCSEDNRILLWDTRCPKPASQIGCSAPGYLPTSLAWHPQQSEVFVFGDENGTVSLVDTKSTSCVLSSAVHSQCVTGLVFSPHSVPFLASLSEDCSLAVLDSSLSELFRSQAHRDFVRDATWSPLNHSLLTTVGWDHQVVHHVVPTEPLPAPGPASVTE

Row | IC50 (PRMT5 [1]) [nM] | IC50 (HAP1 MTAP-intact) [nM] | IC50 (PRMT5 [2]) [nM] | IC50 (PRMT5 [3]) [nM] | IC50 (HAP1 MTAP-deleted) [nM] | IC50 (PRMT5 [1]; read-out: No Co-factor IC50) [nM] | Structure (SMILES) | SAM/MTA Ratio (PRMT5 [3]; [4]) | MTAP Intact/Deleted Ratio (HAP1 MTAP-deleted) | SAM/MTA Ratio (PRMT5 [3]; [5])
1 | 50 to 500 | ≥ 10000 | 50 to 500 | 50 to 500 | < 1000 | – | COCCN(C)c1cc(C(=O)NC[C@H](O)CN2CCc3cc(OCc4ocnc4C)c(F)cc3C2)cc(NC2CCN(C(C)=O)CC2)n1 [Compound 612, 2-[(1-acetyl-4-piperidyl)amino]-N-[(2S)-3-[7-fluoro-6-[(4-methyloxazol-5-yl)methoxy]-3N-dihydro-1H-isoquinolin-2-yl]-2-hydroxy-propyl]-6-[2-methoxyethyl(methyl)amino]pyridine-4-carboxamide] | A (a Ki ratio greater than or equal to 10 fold between the Ki in the presence of SAM and the Ki in the presence of MTA) | A* (an IC50 ratio greater than or equal to 10 fold between the IC50 in the HAP1 MTAP-intact cell line and the HAP1 MTAP-deleted cell line) | –
2 | 500 to 5000 | 1000 to 10000 | 50 to 500 | 50 to 500 | < 1000 | – | Cc1ncoc1COc1ccc2c(c1)CCN(C[C@@H](O)CNC(=O)c1cc(NC3CCC3)ncc1F)C2 [Compound 614, (S)-2-(cyclobutylamino)-5-fluoro-N-(2-hydroxy-3-(6-((4-methyloxazol-5-yl)methoxy)-3,4-dihydroisoquinolin-2(1H)-yl)propyl)isonicotinamide] | A (a Ki ratio greater than or equal to 10 fold between the Ki in the presence of SAM and the Ki in the presence of MTA) | C* (an IC50 ratio of less than 3 fold between the IC50 in the HAP1 MTAP-intact cell line and the HAP1 MTAP-deleted cell line) | –
3 | 500 to 5000 | 1000 to 10000 | 50 to 500 | 50 to 500 | < 1000 | – | CC(=O)N1CCN(c2cc(C(=O)NC[C@H](O)CN3CCc4cc(OCc5ocnc5C)c(F)cc4C3)cc(NC3CCC3)n2)CC1 [Compound 615, 2-(4-acetylpiperazin-1-yl)-6-(cyclobutylamino)-N-[(2S)-3-[7-fluoro-6-[(4-methyloxazol-5-yl)methoxy]-3,4-dihydro-1H-isoquinolin-2-yl]-2-hydroxy-propyl]pyridine-4-carboxamide] | A (a Ki ratio greater than or equal to 10 fold between the Ki in the presence of SAM and the Ki in the presence of MTA) | A* (an IC50 ratio greater than or equal to 10 fold between the IC50 in the HAP1 MTAP-intact cell line and the HAP1 MTAP-deleted cell line) | –
4 | 500 to 5000 | 1000 to 10000 | 50 to 500 | < 50 | < 1000 | – | Cc1ncoc1COc1ccc2c(c1)CCN(C[C@@H](O)CNC(=O)c1cc(NC3CCN(C(=O)C(C)(C)C)CC3)ncn1)C2 [Compound 616, 6-{[1-(2,2-dimethylpropanoyl)piperidin-4-yl]amino}-N-[(2S)-2-hydroxy-3-{6-[(4-methyl-1,3-oxazol-5-yl)methoxy]-1,2,3,4-tetrahydroisoquinolin-2-yl}propyl]pyrimidine-4-carboxamide] | A (a Ki ratio greater than or equal to 10 fold between the Ki in the presence of SAM and the Ki in the presence of MTA) | C* (an IC50 ratio of less than 3 fold between the IC50 in the HAP1 MTAP-intact cell line and the HAP1 MTAP-deleted cell line) | –
5 | 500 to 5000 | ≥ 10000 | 50 to 500 | 50 to 500 | 1000 to 10000 | – | CC(=O)N1CCC(Nc2cc(C(=O)NC[C@H](O)CN3CCc4nc(OCc5ocnc5C)ccc4C3)ccn2)CC1 [Compound 617, 2-[(1-acetyl-4-piperidyl)amino]-N-[(2S)-2-hydroxy-3-[2-[(4-methyloxazol-5-yl)methoxy]-7,8-dihydro-5H-1,6-naphthyridin-6-yl]propyl]pyridine-4-carboxamide] | – | C* (an IC50 ratio of less than 3 fold between the IC50 in the HAP1 MTAP-intact cell line and the HAP1 MTAP-deleted cell line) | –
6 | 500 to 5000 | ≥ 10000 | 50 to 500 | 50 to 500 | 1000 to 10000 | – | CC(=O)N1CCC(Nc2cc(C(=O)NC[C@H](O)CN3CCc4c(C)c(OCc5ocnc5C)cc(F)c4C3)ncn2)CC1 [Compound 618, 6-[(1-acetyl-4-piperidyl)amino]-N-[(2S)-3-[8-fluoro-5-methyl-6-[(4-methyloxazol-5-yl)methoxy]-3,4-dihydro-1H-isoquinolin-2-yl]-2-hydroxy-propyl]pyrimidine-4-carboxamide] | – | B* (an IC50 ratio greater than or equal to 3 fold but lower than 10 fold between the IC50 in the HAP1 MTAP-intact cell line and the HAP1 MTAP-deleted cell line) | –
7 | 500 to 5000 | ≥ 10000 | 50 to 500 | 50 to 500 | 1000 to 10000 | – | Cc1ncoc1COc1cc(F)c2c(c1C)CCN(C[C@@H](O)CNC(=O)c1ccnc(NC3CCC3)c1)C2 [Compound 619, 2-(cyclobutylamino)-N-[(2S)-3-[8-fluoro-5-methyl-6-[(4-methyloxazol-5-yl)methoxy]-3,4-dihydro-1H-isoquinolin-2-yl]-2-hydroxy-propyl]pyridine-4-carboxamide] | – | C* (an IC50 ratio of less than 3 fold between the IC50 in the HAP1 MTAP-intact cell line and the HAP1 MTAP-deleted cell line) | –
8 | 500 to 5000 | < 1000 | 50 to 500 | 50 to 500 | < 1000 | – | Cc1ncoc1COc1ccc2c(c1)CCN(C[C@@H](O)CNC(=O)c1ccnc(NC3CC4(CC4)C3)c1)C2 [Compound 621, (S)—N-(2-hydroxy-3-(6-((4-methyloxazol-5-yl)methoxy)-3,4-dihydroisoquinolin-2(1H)-yl)propyl)-2-(spiro[2.3]hexan-5-ylamino)isonicotinamide] | A (a Ki ratio greater than or equal to 10 fold between the Ki in the presence of SAM and the Ki in the presence of MTA) | B* (an IC50 ratio greater than or equal to 3 fold but lower than 10 fold between the IC50 in the HAP1 MTAP-intact cell line and the HAP1 MTAP-deleted cell line) | –
9 | 500 to 5000 | ≥ 10000 | 50 to 500 | < 50 | < 1000 | – | CC(=O)N1CCC(Nc2cc(C(=O)NC[C@H](O)CN3CCc4cc(OCc5ocnc5C)ccc4C3)ccn2)CC1 [Compound 622, (S)-2-((1-acetylpiperidin-4-yl)amino)-N-(2-hydroxy-3-(6-((4-methyloxazol-5-yl)methoxy)-3,4-dihydroisoquinolin-2(1H)-yl)propyl)isonicotinamide] | A (a Ki ratio greater than or equal to 10 fold between the Ki in the presence of SAM and the Ki in the presence of MTA) | A* (an IC50 ratio greater than or equal to 10 fold between the IC50 in the HAP1 MTAP-intact cell line and the HAP1 MTAP-deleted cell line) | –
10 | 50 to 500 | 1000 to 10000 | 50 to 500 | 50 to 500 | < 1000 | – | CC(=O)N1CCC(Nc2cc(C(=O)NC[C@H](O)CN3CCc4cc(OCc5ocnc5C)c(F)cc4C3)cc(N3CCCCC3)n2)CC1 [Compound 623] | A (a Ki ratio greater than or equal to 10 fold between the Ki in the presence of SAM and the Ki in the presence of MTA) | A* (an IC50 ratio greater than or equal to 10 fold between the IC50 in the HAP1 MTAP-intact cell line and the HAP1 MTAP-deleted cell line) | –
11 | – | 1000 to 10000 | 50 to 500 | < 50 | < 1000 | 500 to 5000 | Cc1ncoc1COc1ccc2c(c1)CCN(C[C@@H](O)CNC(=O)c1ccnc(NC3CCN(C(=O)C4CC4)CC3)c1)C2 [Compound 624, (S)-2-((1-(cyclopropanecarbonyl)piperidin-4-yl)amino)-N-(2-hydroxy-3-(6-((4-methyloxazol-5-yl)methoxy)-3,4-dihydroisoquinolin-2(1H)-yl)propyl)isonicotinamide] | – | A* (an IC50 ratio greater than or equal to 10 fold between the IC50 in the HAP1 MTAP-intact cell line and the HAP1 MTAP-deleted cell line) | A (a Ki ratio greater than or equal to 10 fold between the Ki in the presence of SAM and the Ki in the presence of MTA)
12 | – | ≥ 10000 | 50 to 500 | 50 to 500 | < 1000 | 500 to 5000 | CC(=O)N1CCC(Nc2cc(C(=O)NC[C@H](O)CN3CCc4cc(OCc5ocnc5C)c(F)cc4C3)ccn2)CC1 [Compound 625] | – | A* (an IC50 ratio greater than or equal to 10 fold between the IC50 in the HAP1 MTAP-intact cell line and the HAP1 MTAP-deleted cell line) | A (a Ki ratio greater than or equal to 10 fold between the Ki in the presence of SAM and the Ki in the presence of MTA)
13 | – | 1000 to 10000 | 50 to 500 | < 50 | < 1000 | 500 to 5000 | CC(=O)N1CCC(Nc2cc(C(=O)NC[C@H](O)CN3CCc4cc(OCc5ocnc5C)ccc4C3)cc(N(C)C3CCC3)n2)CC1 [Compound 628, (S)-2-((1-acetylpiperidin-4-yl)amino)-6-(cyclobutyl(methyl)amino)-N-(2-hydroxy-3-(6-((4-methyloxazol-5-yl)methoxy)-3,4-dihydroisoquinolin-2(1H)-yl)propyl)isonicotinamide] | – | B* (an IC50 ratio greater than or equal to 3 fold but lower than 10 fold between the IC50 in the HAP1 MTAP-intact cell line and the HAP1 MTAP-deleted cell line) | A (a Ki ratio greater than or equal to 10 fold between the Ki in the presence of SAM and the Ki in the presence of MTA)
